# Assays:
# [1] = test system: ABUTH (Velvetleaf); assay: Postemergence herbicidal evaluation; assay type: in vivo, Abutilon theophrasti; details: for ABUTH herbicidal rating: postemergence
# Outline: (§1)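 Two-week-old seedlings sprayed with compound in 50/50 acetone/water plus 0.5% TWEEN 20, at about 0.0156 to 0.500 kg/ha, nozzle at 40 psi. Kept in greenhouse; rated visually 4-5 weeks after treatment on a 0-9 scale versus control, repeat tests averaged.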
# [2] = test system: AMBEL (Ragweed, Common); assay: Postemergence herbicidal evaluation; assay type: in vivo, Ambrosia artemisifolia; details: for AMBEL herbicidal rating: postemergence
# Outline: as §1
# [3] = test system: ECHCG (Barnyardgrass); assay: Postemergence herbicidal evaluation; assay type: in vivo, Echinochloa crus-galli; details: for ECHCG herbicidal rating: postemergence
# Outline: as §1
# [4] = test system: SETVI (Foxtail, Green); assay: Postemergence herbicidal evaluation; assay type: in vivo, Setaria viridis; details: for SETVI herbicidal rating: postemergence
# Outline: as §1
# [5] = test system: GLXMAW (Soybean, Williams); assay: Postemergence herbicidal evaluation; assay type: in vivo, Glycine max, (L.) Merr. cv Williams; details: for GLXMAW herbicidal rating: postemergence
# Outline: as §1
# [6] = test system: ORYSAT (Rice, Tebonnet); assay: Postemergence herbicidal evaluation; assay type: in vivo, Oryza sativa, (L.) Tebonnet; details: for ORYSAT herbicidal rating: postemergence
# Outline: as §1
# [7] = test system: TRZAWR (Wheat, Winter, cv Riband); assay: Postemergence herbicidal evaluation; assay type: in vivo, Triticum aestivum; details: for TRZAWR herbicidal rating: postemergence
# Outline: as §1
# [8] = test system: ABUTH (Velvetleaf); assay: Preemergence herbicidal evaluation; assay type: in vivo, Abutilon theophrasti; details: rated 4-5 weeks after treatment
# Outline: (§2)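 Scores (0–9) reflect visual comparison with control plants for stand, vigor, malformation, size and chlorosis. Compound was applied to the soil after sowing, before emergence, as an aqueous acetone spray (about 0.0156–0.500 kg/ha), and cups were kept in a greenhouse for 4–5 weeks.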
# [9] = test system: CASOB (Sicklepod); assay: Preemergence herbicidal evaluation; assay type: in vivo, Cassia obtusifolia; details: rated 4-5 weeks after treatment
# Outline: as §2
# [10] = test system: SETVI (Foxtail, Green); assay: Preemergence herbicidal evaluation; assay type: in vivo, Setaria viridis; details: rated 4-5 weeks after treatment
# Outline: as §2
# [11] = test system: MOOVA (Monochoria); assay: Preemergence weed control under flooded paddy conditions; assay type: in vivo, Monochoria vaginalis; details: rated 3-4 weeks after treatment
# Outline: (§3)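 Ratings on a 0-9 visual scale cover stand, vigor, malformation, size, chlorosis and overall appearance relative to a control, taken three to four weeks post-treatment. Application was into flood water over freshly sown silt loam at roughly 0.0313 to 0.500 kg/ha.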
# [12] = test system: SAGPY (Arrowhead (Pygmaea)); assay: as above; assay type: in vivo, Sagittaria pygmaea; details: rated 3-4 weeks after treatment
# Outline: as §3
# [13] = test system: CYPIR (Rice Flatsedge); assay: Postemergence weed control under flooded paddy conditions; assay type: in vivo, Cyperus iria; details: postemergence weeds, 3-4 weeks after treatment
# Outline: (§4)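 With weeds 3 to 5 cm tall and rice at the 1.5 to 2.5 leaf stage, containers were flooded and water held 1.5 to 3 cm above soil. Compounds in 50/50 v/v aqueous/acetone went into the flood water at about 0.0313 to 0.500 kg/ha a.i. Effects were visually rated 0–9 against controls after three to four weeks in the greenhouse.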
# [14] = test system: SAGPY (Arrowhead (Pygmaea)); assay: as above; assay type: in vivo, Sagittaria pygmaea; details: postemergence weeds, 3-4 weeks after treatment
# Outline: as §4
compound,measurement,setting,value
"CCOC(=O)CN1C(=O)C(CCO)S/C1=N/c1cc(-n2c(=O)cc(C(F)(F)F)n(C)c2=O)c(F)cc1Cl (stereo not drawn) [Compound 49, Ethyl 2-{{2-chloro-5-[3,6-dihydro-3-methyl-2,6-dioxo-4-(trifluoromethyl)-1(2H)-pyrimidinyl]-4-fluorophenyl}imino}-5-(hydroxyethyl)-4-oxo-3-thiazolidineacetate]",Postemergence herbicidal rating ABUTH,[1]; Rate 0.0313 kg/ha,9.0
same,Postemergence herbicidal rating ABUTH,[1]; Rate 0.0625 kg/ha,9.0
same,Postemergence herbicidal rating ABUTH,[1]; rate 0.0156 kg/ha,9.0
same,Postemergence herbicidal rating AMBEL,[2]; Rate 0.0313 kg/ha,9.0
same,Postemergence herbicidal rating AMBEL,[2]; Rate 0.0625 kg/ha,9.0
same,Postemergence herbicidal rating AMBEL,[2]; rate 0.0156 kg/ha,9.0
same,Postemergence herbicidal rating ECHCG,[3]; Rate 0.0313 kg/ha,0.0
same,Postemergence herbicidal rating ECHCG,[3]; Rate 0.0625 kg/ha,0.0
same,Postemergence herbicidal rating ECHCG,[3]; rate 0.0156 kg/ha,0.0
same,Postemergence herbicidal rating SETVI,[4]; Rate 0.0313 kg/ha,4.0
same,Postemergence herbicidal rating SETVI,[4]; Rate 0.0625 kg/ha,7.0
same,Postemergence herbicidal rating SETVI,[4]; rate 0.0156 kg/ha,3.0
same,Postemergence herbicidal rating GLXMAW,[5]; Rate 0.0313 kg/ha,7.5
same,Postemergence herbicidal rating GLXMAW,[5]; Rate 0.0625 kg/ha,8.0
same,Postemergence herbicidal rating GLXMAW,[5]; rate 0.0156 kg/ha,7.5
same,Postemergence herbicidal rating ORYSAT,[6]; Rate 0.0313 kg/ha,2.5
same,Postemergence herbicidal rating ORYSAT,[6]; Rate 0.0625 kg/ha,3.0
same,Postemergence herbicidal rating ORYSAT,[6]; rate 0.0156 kg/ha,1.0
same,Postemergence herbicidal rating TRZAWR,[7]; Rate 0.0313 kg/ha,4.5
same,Postemergence herbicidal rating TRZAWR,[7]; Rate 0.0625 kg/ha,4.5
same,Postemergence herbicidal rating TRZAWR,[7]; rate 0.0156 kg/ha,4.0
same,Preemergence herbicidal rating ABUTH,[8]; rate 0.0156 kg/ha,9.0
same,Preemergence herbicidal rating ABUTH,[8]; rate 0.0313 kg/ha,9.0
same,Preemergence herbicidal rating ABUTH,[8]; rate 0.0625 kg/ha,9.0
same,Preemergence herbicidal rating ABUTH,[8]; rate 0.1250 kg/ha,9.0
same,Preemergence herbicidal rating ABUTH,[8]; rate 0.2500 kg/ha,9.0
same,Preemergence herbicidal rating CASOB,[9]; rate 0.0156 kg/ha,0.0
same,Preemergence herbicidal rating CASOB,[9]; rate 0.0313 kg/ha,3.0
same,Preemergence herbicidal rating CASOB,[9]; rate 0.1250 kg/ha,3.0
same,Preemergence herbicidal rating CASOB,[9]; rate 0.2500 kg/ha,9.0
same,Preemergence herbicidal rating SETVI,[10]; rate 0.0156 kg/ha,0.0
same,Preemergence herbicidal rating SETVI,[10]; rate 0.0313 kg/ha,4.0
same,Preemergence herbicidal rating SETVI,[10]; rate 0.0625 kg/ha,5.0
same,Preemergence herbicidal rating SETVI,[10]; rate 0.2500 kg/ha,5.0
same,Herbicidal rating MOOVA,[11]; 0.0313 kg/ha,9.0
same,Herbicidal rating MOOVA,[11]; 0.0625 kg/ha,9.0
same,Herbicidal rating MOOVA,[11]; 0.1250 kg/ha,9.0
same,Herbicidal rating MOOVA,[11]; 0.2500 kg/ha,9.0
same,Herbicidal rating SAGPY,[12]; 0.0313 kg/ha,2.0
same,Herbicidal rating SAGPY,[12]; 0.0625 kg/ha,4.0
same,Herbicidal rating SAGPY,[12]; 0.1250 kg/ha,6.0
same,Herbicidal rating SAGPY,[12]; 0.2500 kg/ha,7.0
same,Herbicidal rating CYPIR,[13]; rate 0.0313 kg/ha,0.0
same,Herbicidal rating CYPIR,[13]; rate 0.0625 kg/ha,0.0
same,Herbicidal rating CYPIR,[13]; rate 0.1250 kg/ha,2.0
same,Herbicidal rating CYPIR,[13]; rate 0.2500 kg/ha,7.0
same,Herbicidal rating SAGPY,[14]; rate 0.0313 kg/ha,2.0
same,Herbicidal rating SAGPY,[14]; rate 0.0625 kg/ha,4.0
same,Herbicidal rating SAGPY,[14]; rate 0.1250 kg/ha,6.0
same,Herbicidal rating SAGPY,[14]; rate 0.2500 kg/ha,7.0
"CCOC(=O)CN1C(=O)CSC1=Nc1cc(-n2c(=O)cc(C(F)(F)F)n(C)c2=O)c(F)cc1Cl [Compound 8, Ethyl 2-{{2-chloro-5-[3,6-dihydro-3-methyl-2,6-dioxo-4-(trifluoromethyl)-1(2H)pyrimidinyl]-4-fluorophenyl}imino}-4-oxo-3-thiazolidineacetate]",ABUTH herbicidal rating,[1]; rate 0.0157 kg/ha,9.0
same,ABUTH herbicidal rating,[1]; rate 0.0313 kg/ha,9.0
same,ABUTH herbicidal rating,[1]; rate 0.0625 kg/ha,9.0
same,ABUTH herbicidal rating,[1]; rate 0.1250 kg/ha,9.0
same,AMBEL herbicidal rating,[2]; rate 0.0157 kg/ha,9.0
same,AMBEL herbicidal rating,[2]; rate 0.0313 kg/ha,7.8
same,AMBEL herbicidal rating,[2]; rate 0.0625 kg/ha,8.3
same,AMBEL herbicidal rating,[2]; rate 0.1250 kg/ha,8.6
same,ECHCG herbicidal rating,[3]; rate 0.0157 kg/ha,3.0
same,ECHCG herbicidal rating,[3]; rate 0.0313 kg/ha,2.1
same,ECHCG herbicidal rating,[3]; rate 0.0625 kg/ha,5.3
same,ECHCG herbicidal rating,[3]; rate 0.1250 kg/ha,8.2
same,SETVI herbicidal rating,[4]; rate 0.0313 kg/ha,5.3
same,SETVI herbicidal rating,[4]; rate 0.0625 kg/ha,7.6
same,SETVI herbicidal rating,[4]; rate 0.1250 kg/ha,9.0
same,GLXMAW herbicidal rating,[5]; rate 0.0157 kg/ha,7.5
same,GLXMAW herbicidal rating,[5]; rate 0.0313 kg/ha,7.6
same,GLXMAW herbicidal rating,[5]; rate 0.0625 kg/ha,7.9
same,GLXMAW herbicidal rating,[5]; rate 0.1250 kg/ha,8.4
same,ORYSAT herbicidal rating,[6]; rate 0.0157 kg/ha,2.0
same,ORYSAT herbicidal rating,[6]; rate 0.0313 kg/ha,2.7
same,ORYSAT herbicidal rating,[6]; rate 0.0625 kg/ha,4.1
same,ORYSAT herbicidal rating,[6]; rate 0.1250 kg/ha,5.3
same,TRZAWR herbicidal rating,[7]; rate 0.0157 kg/ha,3.5
same,TRZAWR herbicidal rating,[7]; rate 0.0313 kg/ha,5.1
same,TRZAWR herbicidal rating,[7]; rate 0.0625 kg/ha,6.4
same,TRZAWR herbicidal rating,[7]; rate 0.1250 kg/ha,6.4
same,ABUTH preemergence herbicidal rating,[8]; rate 0.0156 kg/ha,7.3
same,ABUTH preemergence herbicidal rating,[8]; rate 0.0313 kg/ha,8.4
same,ABUTH preemergence herbicidal rating,[8]; rate 0.0625 kg/ha,8.7
same,ABUTH preemergence herbicidal rating,[8]; rate 0.1250 kg/ha,9.0
same,ABUTH preemergence herbicidal rating,[8]; rate 0.2500 kg/ha,9.0
same,ABUTH preemergence herbicidal rating,[8]; rate 0.5000 kg/ha,9.0
same,CASOB preemergence herbicidal rating,[9]; rate 0.0156 kg/ha,0.0
same,CASOB preemergence herbicidal rating,[9]; rate 0.0313 kg/ha,0.1
same,CASOB preemergence herbicidal rating,[9]; rate 0.0625 kg/ha,1.2
same,CASOB preemergence herbicidal rating,[9]; rate 0.1250 kg/ha,1.7
same,CASOB preemergence herbicidal rating,[9]; rate 0.2500 kg/ha,3.3
same,CASOB preemergence herbicidal rating,[9]; rate 0.5000 kg/ha,3.8
same,SETVI preemergence herbicidal rating,[10]; rate 0.0156 kg/ha,2.8
same,SETVI preemergence herbicidal rating,[10]; rate 0.0313 kg/ha,6.1
same,SETVI preemergence herbicidal rating,[10]; rate 0.0625 kg/ha,8.2
same,SETVI preemergence herbicidal rating,[10]; rate 0.1250 kg/ha,9.0
same,SETVI preemergence herbicidal rating,[10]; rate 0.2500 kg/ha,9.0
same,SETVI preemergence herbicidal rating,[10]; rate 0.5000 kg/ha,9.0
same,Herbicidal rating MOOVA,[11]; 0.0313 kg/ha,9.0
same,Herbicidal rating MOOVA,[11]; 0.0625 kg/ha,9.0
same,Herbicidal rating MOOVA,[11]; 0.1250 kg/ha,9.0
same,Herbicidal rating MOOVA,[11]; 0.2500 kg/ha,9.0
same,Herbicidal rating SAGPY,[12]; 0.0313 kg/ha,0.0
same,Herbicidal rating SAGPY,[12]; 0.0625 kg/ha,0.0
same,Herbicidal rating SAGPY,[12]; 0.1250 kg/ha,0.0
same,Herbicidal rating SAGPY,[12]; 0.2500 kg/ha,0.0
same,Herbicidal rating CYPIR,[13]; rate 0.0313 kg/ha,0.0
same,Herbicidal rating CYPIR,[13]; rate 0.0625 kg/ha,0.0
same,Herbicidal rating CYPIR,[13]; rate 0.1250 kg/ha,0.0
same,Herbicidal rating CYPIR,[13]; rate 0.2500 kg/ha,4.0
same,Herbicidal rating SAGPY,[14]; rate 0.0313 kg/ha,0.0
same,Herbicidal rating SAGPY,[14]; rate 0.0625 kg/ha,0.0
same,Herbicidal rating SAGPY,[14]; rate 0.1250 kg/ha,0.0
same,Herbicidal rating SAGPY,[14]; rate 0.2500 kg/ha,0.0
